Earlier results in paper PMC8513935.
Values belong to the compound of their own block, whether it stands above or below them.

Columns and labels:
[1] = log P octanol/water from commercial databases, averaged (the ESI); conditions: Octanol (wet), 25 C
[2] = experimental, compiled by the authors from the literature (the ESI cites the sources)
[3] = derived by the authors as gas->solvent minus gas->water (a hypothetical dry solvent; the ESI), not a two-phase measurement

- log K of transfer, water to solvent [1]: 1.77 log10 K
- log K of transfer, gas to solvent ([2]; 2-Methylpropan-1-ol, 25 C): 0.95 log10 K
- log K of transfer, gas to solvent ([2]; 2-Methylpropan-2-ol, 25 C): 0.99 log10 K
- log K of transfer, gas to solvent ([2]; 3-Methylbutan-1-ol, 25 C): 0.963 log10 K
- log K of transfer, gas to solvent ([2]; Butan-1-ol, 25 C): 1.03 log10 K
- log K of transfer, gas to solvent ([2]; Butan-2-ol, 25 C): 0.97 log10 K
- log K of transfer, gas to solvent ([2]; Butanone, 25 C): 1.13 log10 K
- log K of transfer, gas to solvent ([2]; CCl4, 25 C): 1.35 log10 K
- log K of transfer, gas to solvent ([2]; Hexadecane, 25 C): 0.946 log10 K
- log K of transfer, gas to solvent ([2]; Hexane, 25 C): 1.29 log10 K
- log K of transfer, gas to solvent ([2]; Methanol, 25 C): 0.95 log10 K
- log K of transfer, gas to solvent ([2]; Pentan-1-ol, 25 C): 0.97 log10 K
- log K of transfer, gas to solvent ([2]; Propan-1-ol, 25 C): 0.99 log10 K
- log K of transfer, gas to solvent ([2]; Propan-2-ol, 25 C): 0.97 log10 K
- log K of transfer, gas to solvent ([2]; Water, 25 C): -0.97 log10 K
- log K of transfer, water to solvent ([3]; 2-Methylpropan-1-ol, 25 C): 1.92 log10 K
- log K of transfer, water to solvent ([3]; 2-Methylpropan-2-ol, 25 C): 1.96 log10 K
- log K of transfer, water to solvent ([3]; 3-Methylbutan-1-ol, 25 C): 1.93 log10 K
- log K of transfer, water to solvent ([3]; Butan-1-ol, 25 C): 2 log10 K
- log K of transfer, water to solvent ([3]; Butan-2-ol, 25 C): 1.94 log10 K
- log K of transfer, water to solvent ([3]; Butanone, 25 C): 2.1 log10 K
- log K of transfer, water to solvent ([3]; CCl4, 25 C): 2.32 log10 K
- log K of transfer, water to solvent ([3]; Hexadecane, 25 C): 1.92 log10 K
- log K of transfer, water to solvent ([3]; Hexane, 25 C): 2.25 log10 K
- log K of transfer, water to solvent ([3]; Methanol, 25 C): 1.92 log10 K
- log K of transfer, water to solvent ([3]; Pentan-1-ol, 25 C): 1.94 log10 K
- log K of transfer, water to solvent ([3]; Propan-1-ol, 25 C): 1.96 log10 K
- log K of transfer, water to solvent ([3]; Propan-2-ol, 25 C): 1.94 log10 K
Compound: C=CC

- log K of transfer, water to solvent [1]: 2.58 log10 K
- log K of transfer, gas to solvent ([2]; 1,2-Dichloroethane, 25 C): 2.62 log10 K
- log K of transfer, gas to solvent ([2]; 2-Methylpropan-2-ol, 25 C): 2.16 log10 K
- log K of transfer, gas to solvent ([2]; Butan-1-ol, 25 C): 2.17 log10 K
- log K of transfer, gas to solvent ([2]; CCl4, 25 C): 2.68 log10 K
- log K of transfer, gas to solvent ([2]; Chlorobenzene, 25 C): 2.61 log10 K
- log K of transfer, gas to solvent ([2]; Cyclohexanone, 25 C): 2.66 log10 K
- log K of transfer, gas to solvent ([2]; Diethyl Ether, 25 C): 2.48 log10 K
- log K of transfer, gas to solvent ([2]; Hexadecane, 25 C): 2.27 log10 K
- log K of transfer, gas to solvent ([2]; Hexane, 25 C): 2.51 log10 K
- log K of transfer, gas to solvent ([2]; Propan-2-ol, 25 C): 2.05 log10 K
- log K of transfer, gas to solvent ([2]; Tetrahydrofuran, 25 C): 2.5 log10 K
- log K of transfer, gas to solvent ([2]; Water, 25 C): -0.8 log10 K
- log K of transfer, water to solvent ([3]; 1,2-Dichloroethane, 25 C): 3.42 log10 K
- log K of transfer, water to solvent ([3]; 2-Methylpropan-2-ol, 25 C): 2.96 log10 K
- log K of transfer, water to solvent ([3]; Butan-1-ol, 25 C): 2.97 log10 K
- log K of transfer, water to solvent ([3]; CCl4, 25 C): 3.48 log10 K
- log K of transfer, water to solvent ([3]; Chlorobenzene, 25 C): 3.41 log10 K
- log K of transfer, water to solvent ([3]; Cyclohexanone, 25 C): 3.46 log10 K
- log K of transfer, water to solvent ([3]; Diethyl Ether, 25 C): 3.28 log10 K
- log K of transfer, water to solvent ([3]; Hexadecane, 25 C): 3.07 log10 K
- log K of transfer, water to solvent ([3]; Hexane, 25 C): 3.31 log10 K
- log K of transfer, water to solvent ([3]; Propan-2-ol, 25 C): 2.85 log10 K
- log K of transfer, water to solvent ([3]; Tetrahydrofuran, 25 C): 3.3 log10 K
Compound: CC(C)(C)Cl

- log K of transfer, water to solvent [1]: 4.8 log10 K
- log K of transfer, gas to solvent ([2]; 1,2-Dichloroethane, 25 C): 3.19 log10 K
- log K of transfer, gas to solvent ([2]; Acetonitrile, 25 C): 2.51 log10 K
- log K of transfer, gas to solvent ([2]; Butan-1-ol, 25 C): 3.1 log10 K
- log K of transfer, gas to solvent ([2]; Butanone, 25 C): 3.22 log10 K
- log K of transfer, gas to solvent ([2]; Butyronitrile, 25 C): 3.01 log10 K
- log K of transfer, gas to solvent ([2]; CCl4, 25 C): 3.72 log10 K
- log K of transfer, gas to solvent ([2]; Chlorobenzene, 25 C): 3.69 log10 K
- log K of transfer, gas to solvent ([2]; Chloroform, 25 C): 3.63 log10 K
- log K of transfer, gas to solvent ([2]; Cyclohexanone, 25 C): 3.15 log10 K
- log K of transfer, gas to solvent ([2]; Dichloromethane, 25 C): 3.47 log10 K
- log K of transfer, gas to solvent ([2]; Ethanol, 25 C): 2.94 log10 K
- log K of transfer, gas to solvent ([2]; Hexadecane, 25 C): 3.48 log10 K
- log K of transfer, gas to solvent ([2]; Hexane, 25 C): 3.68 log10 K
- log K of transfer, gas to solvent ([2]; Methanol, 25 C): 2.66 log10 K
- log K of transfer, gas to solvent ([2]; Perfluoroalkane, 25 C): 2.45 log10 K
- log K of transfer, gas to solvent ([2]; Propan-1-ol, 25 C): 2.95 log10 K
- log K of transfer, gas to solvent ([2]; Propan-2-ol, 25 C): 2.95 log10 K
- log K of transfer, gas to solvent ([2]; Propanone, 25 C): 3.03 log10 K
- log K of transfer, gas to solvent ([2]; Propionitrile, 25 C): 2.83 log10 K
- log K of transfer, gas to solvent ([2]; Tetrahydrofuran, 25 C): 3.59 log10 K
- log K of transfer, gas to solvent ([2]; Water, 25 C): -1.88 log10 K
- log K of transfer, water to solvent ([3]; 1,2-Dichloroethane, 25 C): 5.07 log10 K
- log K of transfer, water to solvent ([3]; Acetone, 25 C): 4.91 log10 K
- log K of transfer, water to solvent ([3]; Acetonitrile, 25 C): 4.39 log10 K
- log K of transfer, water to solvent ([3]; Butan-1-ol, 25 C): 4.98 log10 K
- log K of transfer, water to solvent ([3]; Butanone, 25 C): 5.1 log10 K
- log K of transfer, water to solvent ([3]; Butyronitrile, 25 C): 4.89 log10 K
- log K of transfer, water to solvent ([3]; CCl4, 25 C): 5.6 log10 K
- log K of transfer, water to solvent ([3]; Chlorobenzene, 25 C): 5.57 log10 K
- log K of transfer, water to solvent ([3]; Chloroform, 25 C): 5.51 log10 K
- log K of transfer, water to solvent ([3]; Cyclohexanone, 25 C): 5.03 log10 K
- log K of transfer, water to solvent ([3]; Dichloromethane, 25 C): 5.35 log10 K
- log K of transfer, water to solvent ([3]; Ethanol, 25 C): 4.82 log10 K
- log K of transfer, water to solvent ([3]; Hexadecane, 25 C): 5.36 log10 K
- log K of transfer, water to solvent ([3]; Hexane, 25 C): 5.56 log10 K
- log K of transfer, water to solvent ([3]; Methanol, 25 C): 4.54 log10 K
- log K of transfer, water to solvent ([3]; Perfluoroalkane, 25 C): 4.33 log10 K
- log K of transfer, water to solvent ([3]; Propan-1-ol, 25 C): 4.83 log10 K
- log K of transfer, water to solvent ([3]; Propan-2-ol, 25 C): 4.83 log10 K
- log K of transfer, water to solvent ([3]; Propionitrile, 25 C): 4.71 log10 K
- log K of transfer, water to solvent ([3]; Tetrahydrofuran, 25 C): 5.47 log10 K
Compound: CC(C)C(C)C(C)C

- log K of transfer, water to solvent [1]: 1.25 log10 K
- log K of transfer, gas to solvent ([2]; 1,2-Dichloroethane, 25 C): 4 log10 K
- log K of transfer, gas to solvent ([2]; CCl4, 25 C): 3.45 log10 K
- log K of transfer, gas to solvent ([2]; Hexadecane, 25 C): 2.84 log10 K
- log K of transfer, gas to solvent ([2]; Water, 25 C): 3.22 log10 K
- log K of transfer, water to solvent ([3]; 1,2-Dichloroethane, 25 C): 0.78 log10 K
- log K of transfer, water to solvent ([3]; CCl4, 25 C): 0.23 log10 K
- log K of transfer, water to solvent ([3]; Hexadecane, 25 C): -0.38 log10 K
Compound: CCCC(C)O (stereo not drawn)
